Experimental data: patent publication US12595251B2, “Amidines and amidine analogs for the treatment of bacterial infections and potentiation antibiotics” (GEORGIA STATE UNIVERSITY RESEARCH FOUNDATION, INC., priority 2018, dated 2026)
Entries after “also recorded” stand apart in the source; their conditions may differ. Counter-ions that a name gives are not always drawn.

Assays:
wild-type E. coli = experiment: Sensitization of wild-type E. coli toward antibiotics (MIC of antibiotic with/without sensitizer); assay type: cell-based, Escherichia coli; conditions: for Sensitization fold: compound at 5 μg/ml, strain and antibiotic not stated in Table 8
Method: Bacteria were cultured with the antibiotic at various concentrations in the presence or absence of bacterial sensitizer for 24 hours at 37° C. Bacterial growth density was determined by measuring OD600 (absorbance measured at a wavelength of 600 nm). […]
The formula for calculating FIC is shown below: […]

wild type B. subtilis [1] = experiment: Sensitization of B. subtilis toward antibiotics (MIC, OD600, 24 h); assay type: cell-based, Bacillus subtilis
Method: (§1) FIG. 22A is a bar graph showing that Compound M-1 sensitizes B. subtilis towards rifampicin as described in Example 13. Bacteria was cultured with rifampicin at various concentrations in the presence or absence of Compound M-1 for 24 hours at 37° C. and bacterial growth density was determined by measuring OD600. The y-axis is growth density measured in percent. The x-axis is rifampicin concentration measured in micrograms per milliliter (***: p<0.01).
Compound M-1 can sensitize Gram-positive bacteria such as B. subtilis towards traditional antibiotics. […] The sensitization fold is 32-fold for Compound M-1 and the FIC index is 0.14.

MRSA = experiment: Sensitization of MRSA toward antibiotics (OD600, 24 h); assay type: cell-based, Staphylococcus aureus; conditions: for Sensitization of MRSA towards rifampicin (qualitative): FIG. 22B, 24 h, 37 °C
Method: as §1, with “Bacteria” for “FIG. 22A is a bar graph showing that Compound M-1 sensitizes B. subtilis towards rifampicin as described in Example 13. Bacteria”
Compound M-1 (2.7 μg/ml) sensitizes MRSA towards existing antibiotics such as rifampicin (32-fold) (FIG. 22B) and trovafloxacin (16-fold). Rifampicin is the first line of defense against MRSA and many MRSA stains grow resistance to rifampicin through overexpression of efflux pump and other mechanisms. Combined with Compound M-1, rifampicin can be used more effectively against MRSA.

E. coli and MRSA = experiment: Relative ratio of E. coli and MRSA under trovafloxacin with/without Compound A-8; assay type: cell-based, Escherichia coli; Staphylococcus aureus
Excerpt: FIG. 23A is a comparison of the relative ratio of E. coli and MRSA treated with the antibiotic trovafloxacin in the absence (pie chart on the left) and in the presence (pie chart on the right) of Compound A-8 as described in Example 14. In the absence of Compound A-8, trovafloxacin preferred to inhibit E. coli and the bacterial population was 78% MRSA. However, Compound A-8 sensitizes trovafloxacin to MRSA.
(§2) As a proof of concept, the relative ratio of E. coli and MRSA (FIG. 23A) or B. subtilis and MRSA (FIG. 23 B) was measured with and without Compound A-8. […] However, when trovafloxacin (8 ng/ml) is supplied with 1.5 μg/ml of Compound A-8, MRSA inhibition was achieved and E. coli was the dominant species (89% of the bacteria population).

B. subtilis and MRSA = experiment: Relative ratio of B. subtilis and MRSA under trovafloxacin with/without Compound A-8; assay type: cell-based, Bacillus subtilis; Staphylococcus aureus
Method: FIG. 23B is a comparison of the relative ratio of B. sub and MRSA treated with the antibiotic trovafloxacin in the absence (pie chart on the left) and in the presence (pie chart on the right) of Compound A-8 as described in Example 14. […] However, Compound A-8 sensitizes trovafloxacin to MRSA.
as §2

B. subtilis = B. subtilis viability with antibiotic in absence or presence of compound (OD600, 20 h); assay type: cell-based, Bacillus subtilis; conditions: for B. subtilis growth inhibition, compound in combination with erythromycin vs erythromycin alone: M-1 12.5 or 6 μM, A-2 6 or 12.5 μM, A-8
Method: Bacterial viability was then determined by measuring density using OD600. […] B. subtilis was also cultured with either novobiocin or tetracycline at varying concentrations either in the absence or presence of compound M-1 (12.5 μM) for 20 hours. Bacterial viability was subsequently determined by measuring density using OD600.
(§3) Bacterial viability was then determined by measuring density using OD600.

E. coli [2] = experiment: E. coli viability with antibiotic in absence or presence of compound (OD600, 20 h); assay type: cell-based, Escherichia coli; conditions: for E. coli growth inhibition, compound in combination with erythromycin: M-1 25 μM or 12 μM, A-1 12 μM, A-8, 20 h
Method: as §3

Klebsiella pneumoniae = experiment: Sensitization of Klebsiella pneumoniae to clarithromycin; assay type: cell-based; conditions: FIG. 16
Excerpt: The x-axis is clarithromycin measured in μg/ml and the y-axis is growth measured in percent.

E. coli outer membrane = E. coli outer membrane integrity, lysozyme lysis assay; assay type: cell-based, Escherichia coli; conditions: lysozyme 50 μg/ml, Compound C 25 μg/ml, 10 min, OD600; dihydrochloride
Method: FIG. 20 is a graph of the E. coli outer membrane integrity measurement using the lysosomal lysis assay as described in Example 10. E. coli (OD600 measurement of about 0.5) was treated with Compound C with or without lysozyme for 10 minutes at room temperature. E. coli with impaired outer membrane caused by Compound C lead to decreased OD600 measurements. The x-axis is labeled with the compound and the y-axis is E. coli growth density determined by measuring OD600, Polymyxin B and pentamidine were used as positive controls.
The mechanism of action was also elucidated using a well-recognized lysosome assay that allows for assessment of membrane permeability. Specifically, lysozyme (about 14 KDa) breaks down bacterial cell wall and leads to bacterial lysis. However, lysozyme cannot penetrate intact Gram-negative bacterial outer membrane. With impaired Gram-negative bacterial membrane, lysozyme is able to diffuse across the disrupted membrane and enzymatically cleave peptidoglycan, which leads to bacterial lysis. […] In the absence of the sensitizer, no cell lysis was observed.

[3] = Lipid A binding assay using Dansyl-PMBN displacement on E. coli; set-up: species or system Escherichia coli; conditions: 10 μM Dansyl-PMBN on E. coli, gradual addition of compound
Method: FIG. 21 is a graph describing the in vivo lipid A binding assay using Dansyl-PMBN as described in Example 11. Dansyl-PMBN (10 μM) was added to E. coli (OD600 measurement of about 0.5) and the fluorescent intensity at this time was recorded as F0. Sensitizers (Compound C, Compound E-20, and Polymyxin B) were added gradually and the fluorescent intensity was recorded 30 seconds later to determine the fluorescent intensity as a percent. The x-axis is concentration of the sensitizers measured in μM and the y-axis is the fluorescent intensity measured as a percent.
Lipid A is a key component of the outer membrane of Gram-negative bacteria and is responsible for maintaining its integrity of the outer membrane. The binding affinity of the compounds of the present invention to Lipid A was measured following literature procedures using a fluorescent conjugate of a polymyxin-B derivative (Dansyl-PMBN). Dansyl-PMBN binds to the lipid A part of LPS and leads to increased fluorescent intensity. […] When 10 μM of Dansyl-PMBN was added to E. coli stock (OD600 measurement around 0.5), the fluorescent intensity increased 10-fold.

E. coli [4] = experiment: O-methyl novobiocin concentration inside E. coli (HPLC of lysate); assay type: cell-based, Escherichia coli; conditions: 50 μg/ml O-methyl novobiocin, 24 h, with 10 μg/ml Compound M-1 vs without
Method: The antibiotic concentration inside E. coli with and without Compound M-1 was measured. The inactivated form of antibiotic was used because the active antibiotic would kill the bacteria or inhibit bacterial growth and this would lead to results that cannot be compared against other control experiments. O-Methyl novobiocin is an inactivated form of novobiocin that was used for this experiment.
E. coli was cultured with 50 μg/ml O-methyl novobiocin for 24 hours at 37° C. with continuous shaking in the absence and presence of 10 μg/ml Compound M-1. E. coli was then centrifuged and the supernatant was removed. To the precipitation that contained E. coli, PBS and novobiocin were added as internal standard and the resulting mixture was sonicated to lyse the cell. The mixture was diluted with acetonitrile (3×) and centrifuged. The supernatant, which contained O-methyl novobiocin, was analyzed by HPLC. The O-methyl novobiocin concentrations inside the bacteria increased 9.1-fold in E. coli in the presence of 10 μg/ml Compound M-1 (FIG. 19). Such results correlate well with the fact that 10 μg/ml Compound M-1 can sensitize E. coli towards novobiocin 8-fold.

E. coli [5] = experiment: Resistance frequency analysis of E. coli on agar plates; assay type: cell-based, Escherichia coli; conditions: from 6*10^8 CFU E. coli; antibiotic at 2 to 6-fold MIC with 10 μg/ml Compound M-1, 48 h
Method: Resistance frequency is an important issue to consider when developing new antimicrobial agents. Using a standard resistance frequency analysis procedure, the resistance frequency was determined. […] Colonies that survived the antibiotic and Compound M-1 combination were considered resistant mutant strains toward this combinational treatment. […] Compound M-1 lowers the resistance frequency of bacteria toward antibiotics. The component in the combination responsible for the resistance was next determined. The 16 resistant colonies were challenged with another combination-rifampicin and Compound M-1.

wild type B. subtilis [6] = experiment: Sensitization of B. subtilis toward antibiotics (MIC, OD600, 24 h); assay type: cell-based, Bacillus subtilis; conditions: Compound M-1 5.5 μg/ml
[7] = trovafloxacin in presence of Compound A-8

Cc1cc(CCc2ccc(C(=N)N)cc2)cc(CCc2ccc(C(=N)N)cc2)c1 [Compound A-8, 4,4′-((5-Methyl-1,3-phenylene)bis(ethane-2,1-diyl))dibenzimidamide Dihydrochloride]
Concentration required to sensitize wild type E. coli towards rifampicin 32-fold (wild-type E. coli): 7 µg/mL | Sensitization fold (wild-type E. coli): 16 | Concentration required to sensitize B. subtilis towards rifampicin 32-fold (wild type B. subtilis [1]): 3 µg/mL | Concentration required to sensitize MRSA towards rifampicin 32-fold (MRSA): 1.5 µg/mL | Sensitization of MRSA towards rifampicin (qualitative) (MRSA): sensitize MRSA towards rifampicin | E. coli share of the bacteria population (E. coli + MRSA) (E. coli and MRSA; trovafloxacin (8 ng/ml) with 1.5 μg/ml of Compound A-8): 89% | MRSA share of the bacteria population (E. coli + MRSA) (E. coli and MRSA; [7]): 11% | B. subtilis share of the bacteria population (B. subtilis + MRSA) (B. subtilis and MRSA; 8 ng/ml trovafloxacin and 1.5 μg/ml of Compound A-8): 99.5% | MRSA share of the bacteria population (B. subtilis + MRSA) (B. subtilis and MRSA; [7]): 0.5% | B. subtilis growth inhibition, compound in combination with erythromycin vs erythromycin alone (B. subtilis; 20 h): significant bacterial growth inhibition | E. coli growth inhibition, compound in combination with erythromycin (E. coli [2]): growth inhibition was also observed | Sensitization of Klebsiella pneumoniae to clarithromycin (Klebsiella pneumoniae): sensitization of Klebsiella pneumoniae to clarithromycin

N=C(N)c1ccc(COc2cc(OCc3ccc(C(=N)N)cc3)cc(C(F)(F)F)c2)cc1 [Compound C, 1,3-Bis {(4-amidino)-benzyloxy}-5-trifluoromethylbenzene dihydrochloride]
Minimal concentration achieving 10-fold sensitization of E. coli toward erythromycin (wild-type E. coli): 2.5 μg/ml | Sensitization fold, rifampicin on E. coli (wild-type E. coli; Compound C 2 μg/ml): 8 | Sensitization fold, rifampicin on E. coli (wild-type E. coli; Compound C 4 μg/ml): 128 | Sensitization fold, rifampicin on E. coli (wild-type E. coli; Compound C 6 μg/ml): 1024 | Sensitization fold, rifampicin on E. coli (wild-type E. coli; Compound C 8 μg/ml): 2,048 | MIC of rifampicin on E. coli (wild-type E. coli; with Compound C 2 μg/ml): 1.25 µg/mL | MIC of rifampicin on E. coli (wild-type E. coli; with Compound C 4 μg/ml): 0.08 µg/mL | MIC of rifampicin on E. coli (wild-type E. coli; with Compound C 6 μg/ml): 0.01 µg/mL | MIC of rifampicin on E. coli (wild-type E. coli; with Compound C 8 μg/ml): 0.005 µg/mL | MIC of rifampicin on E. coli (wild-type E. coli; with Compound C 10 μg/ml): 0.0006 µg/mL | Lysozyme-induced lysis of E. coli (membrane integrity) (E. coli outer membrane): quick bacterial lysis; also recorded: more potent than pentamidine | Binding to lipid A (decrease of Dansyl-PMBN fluorescent intensity) [3]: bind to lipid A

Cc1cc(COc2ccc(C(=N)N)cc2)cc(COc2ccc(C(=N)N)cc2)c1 [Compound M-1, 4,4′-(((5-Methyl-1,3-phenylene)bis(methylene))bis(oxy))dibenzimidamide Hydrochloride]
Sensitization of E. coli towards novobiocin (wild-type E. coli; 10 μg/ml Compound M-1): 8 fold | Sensitization fold (wild-type E. coli): 8 | Increase of O-methyl novobiocin concentration inside E. coli (E. coli [4]): 9.1 fold | Colonies resistant to antibiotic-Compound M-1 combinations (E. coli [5]): 16 colonies | FIC index, rifampicin on B. subtilis (wild type B. subtilis [1]; 5.5 μg/ml Compound M-1): 0.11 | Sensitization fold, B. subtilis towards rifampicin (wild type B. subtilis [1]; 5.5 μg/ml Compound M-1): 256 fold | Growth density compared with no-treatment group (wild type B. subtilis [1]; 5.5 μg/ml of Compound M-1 by itself): 80% | MIC (wild type B. subtilis [1]; Bacillus subtilis, read-out: MIC on wild type B. subtilis): 50 µg/mL | Sensitization fold, MRSA towards rifampicin (MRSA; Compound M-1 2.7 μg/ml): 32 fold | Sensitization fold, MRSA towards trovafloxacin (MRSA; Compound M-1 2.7 μg/ml): 16 fold | Sensitization of MRSA towards rifampicin (qualitative) (MRSA): sensitize MRSA towards rifampicin | viability at 12.5 µM (B. subtilis; Bacillus subtilis, 12.5 μM, 20 h, read-out: B. subtilis viability, compound alone): 80% | B. subtilis growth inhibition, compound in combination with novobiocin or tetracycline (B. subtilis; Compound M-1 12.5 μM, 20 h): significant bacterial growth inhibition | Effect of lipoteichoic acid (LTA) on growth inhibition by erythromycin + M-1 in B. subtilis (B. subtilis; LTA 1 mg/mL): could be inhibited by co-culturing with lipoteichoic acid (LTA) | B. subtilis growth inhibition, compound in combination with erythromycin vs erythromycin alone (B. subtilis; 20 h): significant bacterial growth inhibition | Effect of LPS or Mg2+ on sensitization of E. coli by M-1 with erythromycin (E. coli [2]; 2 mg/mL LPS or 21 mM Mg2+, M-1 12 μM): inhibited | E. coli growth inhibition, compound in combination with erythromycin (E. coli [2]): significant bacterial growth inhibition | FIC index, erythromycin on B. subtilis (wild type B. subtilis [6]): 0.14 | Sensitization fold, B. subtilis towards clarithromycin (wild type B. subtilis [6]): 32 fold | Sensitization fold, B. subtilis towards clindamycin (wild type B. subtilis [6]): 16 fold | Sensitization fold, B. subtilis towards entrapenem (wild type B. subtilis [6]): 4 fold | Sensitization fold, B. subtilis towards erythromycin (wild type B. subtilis [6]): 32 fold | Sensitization fold, B. subtilis towards methicillin (wild type B. subtilis [6]): 4 fold | Sensitization fold, B. subtilis towards novobiocin (wild type B. subtilis [6]): 4 fold | Sensitization fold, B. subtilis towards trovafloxacin (wild type B. subtilis [6]): 8 fold
